Drawing on US8765908B2, “Compositions for improving bone mass” (The UAB Research Foundation, priority 2010, dated 2014), this text covers RYBP expression, osteoclastogenesis and rescue of osteoclastogenesis for two molecules.

Entries after “also recorded” stand apart in the source; their conditions may differ.

Data set [1] deals with RYBP. Nature of the data set: Western blot of RYBP expression in retrovirally infected BMMs. As to conditions: BMMs infected with retrovirus expressing siRNA; anti-RYBP Western blot. It counts as cell-based, mouse. The procedure: Western blot analysis was performed as previously described (Xu et al., 2006; Liu et al., 2004). RAW264.7 cells cultured in DMEM containing 10% HI-FBS and penicillin/streptomycin were treated with RANKL (100 ng/ml) for various times before being lysed for Western blot analysis with anti-RYBP antibody from Abcam Inc (Cambridge, Mass.). Primary BMMs were normally cultured in α-MEM containing 10% HI-FBS and penicillin/streptomycin in the presence of M-CSF (44 ng/ml). Uninfected BMMs or BMMs infected with retrovirus encoding siRNA and/or tagged-RYBP were cultured in the presence of M-CSF (44 ng/ml) with or without RANKL (100 ng/ml) for various times and then lysed for Western blot analysis. For Western blot analysis of IP complex, all 35 μl of the eluted proteins from each IP assay was loaded for Western blot analysis with anti-HA antibody (Clontech Laboratories, Inc), anti-Myc antibody (Clontech Laboratories, Inc), anti-RYBP (Abcam Inc) antibody and anti-β-actin antibody (Santa Cruz Biotechnology).
293GPG cells were cultured in DMEM with 10% HI-FBS supplemented with tetracycline, puromycin, G418 and penicillin/streptomycin as previously described {2222). Plat-E cells were cultured in DMEM with 10% HI-FBS supplemented with puromycin, blasticidin and penicillin/streptomycin as previously described {Morita, 2000 3155/id}. […]
Background: In western blotting, separated proteins are transferred to a membrane and probed.

Data set [2] has as its system primary BMMs. The data set can be described thus: In vitro osteoclastogenesis assay (TRAP staining). The settings on record: TRAP stain. It counts as cell-based, mouse. The method, then: Primary BMMs were cultured in 24-well tissue culture plates (5×10^4 cells/well) with a-MEM containing 10% heat-inactivated FBS in the presence of 0.02 volume of culture supernatant of M-CSF-producing cells (final M-CSF concentration 44 ng/ml) (Takeshita et al., 2000) and 100 ng of GST-RANKL (Lam et al., 2000). […]
293GPG cells were cultured in DMEM with 10% HI-FBS supplemented with tetracycline, puromycin, G418 and penicillin/streptomycin as previously described {2222). Plat-E cells were cultured in DMEM with 10% HI-FBS supplemented with puromycin, blasticidin and penicillin/streptomycin as previously described {Morita, 2000 3155/id}. The retroviral vectors were transiently transfected into 293GPG cells or Plat-E cells using Lipofectamine Plus Reagent (Invitrogen). Virus supernatant was collected at 48, 72 and 96 h after transfection. Cells were then infected with virus for 24 hours in the presence of M-CSF (220 ng/ml) and 8 μg/ml polybrene. Cells were further cultured in the presence of M-CSF (220 ng/ml) and 2 μg/ml puromycin for selection and expansion of transduced cells. Selected cells were subsequently used for various studies.
A scrambled siRNA sequence was designed to use as control (FIG. 3A). BMMs were uninfected or infected with retrovirus expressing scrambled RNA or RYBP siRNA. […]

Turning to “RYBP siRNA: retrovirally expressed siRNA targeting the RYBP mRNA region encoding DPPSEA (AGCUUCACUAGGAGGAUCU)”, the RYBP expression result in data set [1] was “significantly suppressed RYBP expression; also recorded: dramatically knocked down endogenous RYBP expression”. Moreover, the osteoclastogenesis result in data set [2] (infected BMMs treated with M-CSF (44 ng/ml) and RANKL (100 ng/ml) for 4 days) is reported as “inhibited osteoclastogenesis”.

B1: RYBP-HA: WT RYBP with HA tag at C-terminus, siRNA target region silently mutated (protein, UniProt Q8N488 1-228, looked up)
RING1 and YY1-binding protein: MTMGDKKSPTRPKRQAKPAADEGFWDCSVCTFRNSAEAFKCSICDVRKGTSTRKPRINSQLVAQQVAQQYATPPPPKKEKKEKVEKQDKEKPEKDKEISPSVTKKNTNKKTKPKSDILKDPPSEANSIQSANATTKTSETNHTSRPRLKNVDRSTAQQLAVTVGNVTVIITDFKEKTRSSSTSSSTVTSSAGSEQQNQSSSGSESTDKGSSRSSTPKGDMSAVNDESF
modifications: C-terminal HA tag
notes: WT RYBP with HA tag at C-terminus, siRNA target region silently mutated
As to B1, the rescue of osteoclastogenesis entry in data set [2] (BMMs co-infected with RYBP siRNA retrovirus, M-CSF and RANKL 4 days) is reported as “effectively rescued osteoclastogenesis”.
